Measured values from patent US20110212169A1, “METHOD FOR PRODUCING POWDER CONTAINING NANOPARTICULATED SPARINGLY SOLUBLE DRUG, POWDER PRODUCED THEREBY AND PHARMACEUTICAL COMPOSITION CONTAINING SAME (As Amended)” (Amorepacific Corporation, priority 2008, published 2011).

Test: Particle size of drug after redispersion in distilled water (laser scattering particle size analyzer)
Format: physicochemical
Procedure: Each powder (0.01 g) was redispersed in distilled water (5 mL) and particle size was measured. Electron microscopic images of the powders when the concentration of the carageenan solution was 0.1 wt % and 2 wt % are shown in FIGS. 2a and 2b, respectively. The redispersion was conducted by lightly shaking the mixture with a hand. The particle size was measured under aqueous condition using a laser scattering particle size analyzer (LA 910, Horiba, Japan) (Mie & Fraunhofer, relative refraction index=1). The resolving power of the ultrasonic disperser used for the particle size measurement was 40 W (39 kHz), and the speed of stirring and circulation was 340 mL/min. The particle size measurement was made after performing ultrasonic dispersion for 1 minute.

Structure (SMILES): C=CC[C@@H]1/C=C(\C)C[C@H](C)C[C@H](OC)[C@H]2O[C@@](O)(C(=O)C(=O)N3CCCC[C@H]3C(=O)O[C@H](/C(C)=C/[C@@H]3CC[C@@H](O)[C@H](OC)C3)[C@H](C)[C@@H](O)CC1=O)[C@H](C)C[C@@H]2OC [Tacrolimus, tacrolimus]
- Average particle size (carageenan 5 wt %, freeze dried powder redispersed in distilled water, different drugs): 0.16 (±0.09) μm

Structure (SMILES): COc1ccc2cc([C@H](C)C(=O)O)ccc2c1 [naproxen]
- Average particle size (1 wt % carageenan, hot air drying at 40 °C, redispersed in distilled water): 0.39 (±1.01) μm
- Average particle size (1 wt % carageenan, hot air drying at 60 °C, redispersed in distilled water): 0.36 (±0.29) μm
- drug particle size (alginic acid 1 wt %, vacuum drying at room temperature, redispersed in distilled water): 0.31 (±0.41)
- drug particle size (alginic acid 2 wt %, vacuum drying at room temperature, redispersed in distilled water): 0.19 (±0.05)
- Average particle size (carageenan 0.1 wt %, freeze dried powder redispersed in distilled water): 0.91 (±2.00) μm
- Average particle size (carageenan 0.5 wt %, freeze dried powder redispersed in distilled water): 0.31 (±0.10) μm
- Average particle size (carageenan 0.5 wt %, vacuum drying at room temperature, redispersed in distilled water): 0.36 (±0.71) μm
- Average particle size (carageenan 1 wt %, freeze dried powder redispersed in distilled water): 0.28 (±0.08) μm
- Average particle size (carageenan 1 wt %, vacuum drying at room temperature, redispersed in distilled water): 0.26 (±0.06) μm
- Average particle size (carageenan 2 wt %, freeze dried powder redispersed in distilled water): 0.23 (±0.06) μm
- Average particle size (carageenan 2 wt %, vacuum drying at room temperature, redispersed in distilled water): 0.21 (±0.06) μm
- Average particle size (carageenan 3 wt %, freeze dried powder redispersed in distilled water): 0.26 (±0.07) μm
- Average particle size (carageenan 3 wt %, vacuum drying at room temperature, redispersed in distilled water): 0.23 (±0.06) μm
- Average particle size (carageenan 5 wt %, freeze dried powder redispersed in distilled water): 0.12 (±0.05) μm
- drug particle size (gelatin 1 wt %, freeze drying, redispersed in distilled water): 0.45 (±0.89)
- drug particle size (gelatin 2 wt %, freeze drying, redispersed in distilled water): 0.16 (±0.08)
- drug particle size (gelatin 3 wt %, freeze drying, redispersed in distilled water): 0.13 (±0.06)
- drug particle size (gelatin 3 wt %, vacuum drying at room temperature, redispersed in distilled water): 0.36 (±0.10)
- drug particle size (gelatin 5 wt %, freeze drying, redispersed in distilled water): 0.16 (±0.05)
- Average particle size (naproxen concentration 16 wt %, carageenan 0.5 wt %, freeze dried, redispersed in distilled water): 0.56 (±1.20) μm
- Average particle size (naproxen concentration 16 wt %, carageenan 1 wt %, freeze dried, redispersed in distilled water): 0.22 (±0.07) μm
- average particle size of the naproxen particles (slurry mixture after wet grinding (before drying) redispersed in distilled water): 0.10 μm
